Where two headings read alike, the source gives them in different places.
Legend:
[1] = system: clinically-relevant Leishmania strains; test: Activity in clinically-relevant Leishmania strains; assay type: cell-based
Excerpt: Strain Leishmania EC50 (µM) Host Cell EC50 (µM)
Results from one or two (both values shown) biological replicates. […]

[2] = biological target: T1, human purified 26S proteasome (Homo sapiens, UniProt P28074+P49721); test: Proteasome activity assay, chymotrypsin-like, purified human 26S; assay type: biochemical
T1 construct: purchased Boston Biochem
Protocol: Proteasome activity assays
Compounds were dispensed into black 384-well assay plates (Greiner) by acoustic dispensing (LabCyte ECHO). For potency determinations, eleven-point, one in three dilution curves were generated, with a top concentration of 100 µM. Three proteasome activities were measured using a commercially available indirect enzyme-based luminescent assay kit (Promega) with Suc-LLVY-aminoluciferin, Z-LRR-aminoluciferin and Z-nLPnLD-aminoluciferin used as substrates for chymotrypsin-like, trypsin-like and caspase-like activities, respectively. In addition to proteasome samples: L. donovani and THP1-enriched proteasomes, commercially available human purified 26S proteasome (Boston Biochem) was also assessed. Proteasome final assay concentration were 0.025 mg/ml for L. donovani and THP1-enriched proteasomes and 1 nM for human purified 26S proteasome. Proteasome solution was added to the plates containing the compounds one hour before adding the proteasome substrate solution.
Substrate solution was then added and after 30 min of incubation luminescent signal was measured in an Envision reader (PerkinElmer).

[3] = system: human proteasome catalytic subunits (THP-1 extracts); test: Activity-based probe (UbiQ-018) labelling of THP-1 proteasome; assay type: binding; conditions: human THP-1 extracts, 100 µM
Protocol: Activity-Based Probe Labelling of THP1 and L. donovani proteasome
Proteasome enriched fractions from THP1 (20 µg), L. donovani (10 µg) and L. donovani
µM for 1 h. Proteasome enriched fractions were also incubated with DMSO as control.
For all proteasome labelling experiments, the active-site probe Me4BodipyFL-Ahx3Leu3VS (UbiQ-018) was used at final concentration of 500 nM in sucrose buffer (50 mM Tris buffer pH 7.5, 5 mM magnesium chloride, 1 mM EDTA, 50 mM NaCl, 250 mM sucrose, 2 mM ATP, 1 mM DTT). Proteasome enriched fractions treated with
DMSO or test compounds, were incubated with the probe for 2h at RT. Samples were then denatured by addition of Laemmli sample buffer, heated to 95°C for 10 min and separated by electrophoresis on a 15% SDS-PAGE acrylamide gel. Following separation, gels were scanned in the fluorescein channel of a ChemiDoc reader (λ excitation/emission = 480/530 nm). Fluorescent proteins were excised and MALDI– TOF analysis carried out by the FingerPrints Proteomics service at the University of

[4] = system: L. donovani axenic amastigotes; test: L. donovani axenic amastigote drug sensitivity; assay type: cell-based; conditions: Leishmania donovani, concentration stated as 1X IC50, read-out: whole cell IC50
Protocol: T. cruzi4, Leishmania donovani axenic amastigote, cidal axenic amastigote and intra-macrophage drug sensitivity assays were conducted as previously described5,6.
The rate of kill of compound 8 was determined in axenic amastigotes using the previously described cidal axenic assay5, with one minor modification. Instead of a single readout at 72 h, multiple identical plates were used and read at different time points (24, 48, 72 h). Rate of kill curves showing the luminescence signal at each time point for each concentration were plotted.
5. Intrinsic clearance (CLint) […]
XLfit (idbs, UK) was used to calculate the exponential decay and consequently the rate constant (k) from the ratio of peak area of test compound to internal standard at each time-point. The rate of intrinsic clearance (CLint) of each test compound was then calculated using the following calculation: […]
Compounds were dispensed into black 384-well assay plates (Greiner) by acoustic dispensing (LabCyte ECHO). […] Three proteasome activities were measured using a commercially available indirect enzyme-based luminescent assay kit (Promega) with Suc-LLVY-aminoluciferin, Z-LRR-aminoluciferin and Z-nLPnLD-aminoluciferin used as substrates for chymotrypsin-like, trypsin-like and caspase-like activities, respectively. […]

[5] = system: Leishmania tarentolae; test: Potency against L. tarentolae; assay type: cell-based
Excerpt: The potency of 8 against the nonpathogenic Leishmania spp. […] Apo (3.3 Å) and 8-liganded (2.8 Å) (Fig. 5A) L. tarentolae 20S proteasome structures were obtained using single-particle cryo-EM (SI Appendix, Figs. S11–S15 and Table S9).

[6] = system: TA100
Protocol: (§1) oxidative metabolism system (S9-mix). The maximum concentration tested and […]
(§2) Compound 7a was tested in a bacterial mutation screening assay (Ames test) with Salmonella typhimurium TA1535, TA1537, TA98, TA100 and Escherichia coli WP2uvrA(pKM101) in the presence and absence of an exogenous mammalian […]
(§3) The bacterial mutation screening assay was a plate incorporation test carried out as previously described15 and according to current methodology. […]

[7] = system: TA1535
Protocol: as §1, §2, §3

[8] = with S9-mix, dose level 50 per plate
[9] = with S9-mix, dose level 150 per plate
[10] = with S9-mix, dose level 500 per plate
[11] = with S9-mix, dose level 1500 per plate
[12] = with S9-mix, dose level 2500 per plate
[13] = with S9-mix, dose level 5000 per plate
[14] = without S9-mix, dose level 50 per plate
[15] = without S9-mix, dose level 150 per plate
[16] = without S9-mix, dose level 500 per plate
[17] = without S9-mix, dose level 1500 per plate
[18] = without S9-mix, dose level 2500 per plate
[19] = without S9-mix, dose level 5000 per plate

O=C(Nc1ccc(F)c(-c2ccn3c(N4CCOCC4)cnc3n2)c1)N1CCCC1 [Compound 8]
EC50 ([1]; Leishmania, in vitro, clinical strains incl. LV9, SUKA001, DD8-WT, BHU1, read-out: EC50 against clinical strains): ~1 µM | EC50 ([1]; Leishmania, strain MHOM/ET/67/HU3 (LV9), read-out: Leishmania EC50): 0.4 µM | EC50 ([1]; Leishmania, strain MHOM/IN/80/DD8, read-out: Leishmania EC50): 1.6 µM | EC50 ([1]; Leishmania, strain MHOM/IN/2002/BHU1, read-out: Leishmania EC50): 0.6 µM | EC50 ([1]; Leishmania, strain SUKA001, read-out: Leishmania EC50): 0.5 µM | EC50 ([1]; strain MHOM/ET/67/HU3 (LV9), read-out: Leishmania EC50): 0.8 µM | IC50 [2]: 13 ± 0.88 µM | UbiQ-018 labelling of proteasome subunits [3]: no effect | IC50 [4]: 0.3 µM | EC50 [5]: 0.04 µM | Mean revertants per plate [6, 8]: 123.0 | Mean revertants per plate [6, 9]: 96.5 | Mean revertants per plate [6, 10]: 106.5 | Mean revertants per plate [6, 11]: 118.0 | Mean revertants per plate [6, 12]: 101.0 | Mean revertants per plate [6, 13]: 122.5 | Mean revertants per plate [6, 14]: 99.0 | Mean revertants per plate [6, 15]: 97.0 | Mean revertants per plate [6, 16]: 86.0 | Mean revertants per plate [6, 17]: 109.5 | Mean revertants per plate [6, 18]: 91.5 | Mean revertants per plate [6, 19]: 94.5 | Mean revertants per plate [7, 8]: 12.0 | Mean revertants per plate [7, 9]: 10.0 | Mean revertants per plate [7, 10]: 17.5 | Mean revertants per plate [7, 11]: 13.5 | Mean revertants per plate [7, 12]: 12.5 | Mean revertants per plate [7, 13]: 9.0 | Mean revertants per plate [7, 14]: 19.0 | Mean revertants per plate [7, 15]: 15.0 | Mean revertants per plate [7, 16]: 21.5 | Mean revertants per plate [7, 17]: 16.0 | Mean revertants per plate [7, 18]: 15.5 | Mean revertants per plate [7, 19]: 18.0
